SMILES strings stand for the structures.

human MAT2A enzyme, sequence (P31153 whole entry): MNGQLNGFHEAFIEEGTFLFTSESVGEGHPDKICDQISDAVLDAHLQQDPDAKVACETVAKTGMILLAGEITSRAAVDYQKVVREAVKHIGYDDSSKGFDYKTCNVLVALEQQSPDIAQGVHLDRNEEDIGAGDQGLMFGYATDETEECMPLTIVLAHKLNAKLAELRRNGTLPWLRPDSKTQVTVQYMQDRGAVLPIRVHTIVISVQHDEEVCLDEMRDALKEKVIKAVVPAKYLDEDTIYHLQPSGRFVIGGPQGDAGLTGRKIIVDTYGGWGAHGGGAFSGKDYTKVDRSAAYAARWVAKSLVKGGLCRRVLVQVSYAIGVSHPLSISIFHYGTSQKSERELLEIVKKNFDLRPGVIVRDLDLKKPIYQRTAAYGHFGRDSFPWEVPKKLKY

The target in the test is human MAT2A enzyme (Homo sapiens (Human), UniProt P31153). The test is described as follows: In vitro enzymatic inhibition activity assay on MAT2A (PiColorLock phosphate detection). The test is classed as biochemical. To be noted: purified human MAT2A 10 nM, ATP 50 μM, L-methionine 100 μM, 6 h at 23° C.; read-out: MAT2A inhibitory activity IC50. Here is the method:
Enzymatic activity assays of compounds of this patent against MAT2A (to detect half inhibitory concentration IC50 values of the compounds) were performed using the phosphate detection kit PiColorLockTM (ab270004, purchased from Abcam). This method utilized the principle that purified human MAT2A enzyme catalyzes the formation of S-adenosylmethionine (SAM) from L-methionine and ATP to release free phosphate, and used the spectrophotometric method to quantify phosphate, so as to determine the enzymatic activity of MAT2A. Compounds were diluted in a 10-fold gradient starting at 1 mM with 100% DMSO (for a total of 8 concentrations) and 2 μL of each concentration was added to 48 μL of reaction buffer (50 mM Tris-HCl PH 7.5, 50 mM KCl, 10 mM MgCl2, 0.01% Brij-35, 0.01% BSA, 1 mM DTT) and mixed well. The final diluted compound was prepared, and 5 μL of MAT2A enzyme (final concentration of 10 nM), 5 μL of ATP (final concentration of 50 μM), and 5 μL of L-methionine (final concentration of 100 μM) were added to each well of a 384-well plate (#3701, purchased from CORNING). After the 384-well plate was placed in the incubator at 23° C. for 6 h, 5 μL of PiColorLock reagent diluted Accelerator (dilution ratio 1:100) was added to each well, and the reaction was stopped by incubating in the incubator at 23° C. for 5 min. 2 μL of Stabiliser was added, the absorbance was read at 630 nm on BMG CLARIOstar, and the IC50 value of the compound was calculated by using GraphPad Prism software.
Under the conditions of this experiment, the inhibition of MAT2A by test compounds can be expressed as an IC50 value for the inhibition of the level of phosphate production during the enzymatic reaction.
In general, IC50 refers to the concentration that inhibits the measured activity by half. Turning to `COC(=O)c1c(N)c2ccc(Br)nc2n(-c2ccc(C)nc2)c1=O` [Example 258, methyl 4-amino-7-bromo-1-(6-methylpyridin-3-yl)-2-oxo-1,2-dihydro-1,8-naphthyridine-3-carboxylate], the IC50 came out at 1.31 nM.

In the case of `COC(=O)c1c(N)c2ccc(Br)cc2n(-c2cccc3c(C)nccc23)c1=O` [Example 231, methyl 4-amino-1-(1-methylisoquinolin-5-yl)-7-bromo-2-oxo-1,2-dihydroquinoline-3-carboxylate], the IC50 was 2.36 nM.

For `C#Cc1ccc(-n2c(=O)c(C(=O)OC)c(N)c3ccc(C(F)(F)F)cc32)cc1` [Example 133, methyl 4-amino-1-(4-ethynylphenyl)-2-oxo-7-(trifluoromethyl)-1,2-dihydroquinoline-3-carboxylate], the IC50 is 2.79 nM.

On to `COC(=O)c1c(N)c2ccc(C(C)(F)F)cc2n(-c2ccc([C@@H](C)O)cc2)c1=O` [Example 358, methyl 4-amino-7-(1,1-difluoroethyl)-1-(4-((1R)-1-hydroxyethyl)phenyl)-2-oxo-1,2-dihydroquinoline-3-carboxylate], for which the IC50 was 1.36 nM.

As to `COC(=O)c1c(N)c2ccc(OC)cc2n(-c2ccc([C@@H](C)O)cc2)c1=O` [Example 365, methyl (R)-4-amino-1-(4-(1-hydroxyethyl)phenyl)-7-methoxy-2-oxo-1,2-dihydroquinoline-3-carboxylate], the IC50 amounted to 2.02 nM.

For the compound `COC(=O)c1c(N)c2ccc(I)cc2n(-c2ccccc2C)c1=O` [Example 19, methyl 4-amino-7-iodo-1-(2-methylphenyl)-2-oxo-1,2-dihydroquinoline-3-carboxylate], the IC50 is 2.34 nM.

On to `COC(=O)c1c(N)c2ccc(C(F)(F)F)cc2n(-c2ccc(N)cc2)c1=O` [Example 273, methyl 4-amino-1-(4-aminophenyl)-2-oxo-7-(trifluoromethyl)-1,2-dihydroquinoline-3-carboxylate], for which the IC50 turned out to be 0.92 nM.

As to `COC(=O)c1c(N)c2ccc(I)cc2n(Cc2ccccc2)c1=O` [Example 28, methyl 4-amino-1-benzyl-7-iodo-2-oxo-1,2-dihydroquinoline-3-carboxylate], the IC50 turned out to be 3.62 nM.

For `COC(=O)c1c(N)c2ccc(Br)cc2n(-c2ccccc2N)c1=O` [Example 250, methyl 4-amino-1-(2-aminophenyl)-7-bromo-2-oxo-1,2-dihydroquinoline-3-carboxylate], the half-inhibitory concentration (IC50) worked out at 6.06 nM.

Consider `COC(=O)c1c(N)c2ccc(Br)cc2n(-c2cccc3c(Cl)nccc23)c1=O` [Example 216, methyl 4-amino-1-(1-chloroisoquinolin-5-yl)-7-bromo-2-oxo-1,2-dihydroquinoline-3-carboxylate], for which the IC50 was found to be 2.34 nM.

Take `COC(=O)c1c(N)c2ccc(C(F)(F)F)cc2n(-c2cccc3[nH]ccc23)c1=O` [Example 229, methyl 4-amino-1-(1H-indol-4-yl)-2-oxo-7-(trifluoromethyl)-1,2-dihydroquinoline-3-carboxylate]: the IC50 was found to be 4.18 nM.

Regarding `[2H]C([2H])([2H])OC(=O)c1c(N)c2ccc(Br)cc2n(-c2ccc(N)cc2)c1=O` [Example 189, methyl-d3 4-amino-1-(4-aminophenyl)-7-bromo-2-oxo-1,2-dihydroquinolin-3-carboxylate], the IC50 was 0.32 nM.

On to `COC(=O)c1c(N)c2ccc(Cl)nc2n(-c2cccc3cnccc23)c1=O` [Example 201, methyl 4-amino-7-chloro-1-(isoquinolin-5-yl)-2-oxo-1,2-dihydro-1,8-naphthyridine-3-carboxylate], for which the IC50 was 5.38 nM.

Consider `COC(=O)c1c(N)c2ccc(C(F)(F)F)nc2n(-c2ccc(N)cc2)c1=O` [Example 274, methyl 4-amino-1-(4-aminophenyl)-2-oxo-7-(trifluoromethyl)-1,2-dihydro-1,8-naphthyridine-3-carboxylate], for which the IC50 stood at 0.53 nM.

Regarding `COC(=O)c1c(N)c2ccc(C(F)(F)F)cc2n(-c2ccc3nc[nH]c3c2)c1=O` [Example 76, methyl 4-amino-1-(3H-benzo[d]imidazol-5-yl)-2-oxo-7-(trifluoromethyl)-1,2-dihydroquinoline-3-carboxylate], the IC50 came out at 1.71 nM.

In the case of `COC(=O)c1c(N)c2ccc(C3CC3)nc2n(-c2ccc(C)nc2)c1=O` [Example 377, methyl 4-amino-7-cyclopropyl-1-(6-methylpyridin-3-yl)-2-oxopyrido[2,3-b]pyridin-3-carboxylate], the IC50 is 1.89 nM.

Regarding `COC(=O)c1c(N)c2ccc(Br)nc2n(-c2ccc(N)nc2)c1=O` [Example 241, methyl 4-amino-1-(6-aminopyridin-3-yl)-7-bromo-2-oxo-1,2-dihydro-1,8-naphthyridine-3-carboxylate], the IC50 came to 1.42 nM.

Regarding `COC(=O)c1c(N)c2ccc(C3CC3)nc2n(-c2ccc(N)cc2)c1=O` [Example 373, methyl 4-amino-1-(4-aminophenyl)-7-cyclopropyl-2-oxo-1,2-dihydro-1,8-naphthyridine-3-carboxylate], the IC50 was determined as 1.05 nM.

Take `[2H]C([2H])([2H])OC(=O)c1c(N)c2ccc(C(F)(F)F)cc2n(-c2ccc(N)cc2)c1=O` [Example 412, methyl-d3 4-amino-1-(4-aminophenyl)-7-(trifluoromethyl)-2-oxo-1,2-dihydroquinoline-3-carboxylate]: the IC50 stood at 0.97 nM.

As for `COC(=O)c1c(N)c2ccc(C(F)(F)F)cc2n(-c2ccc(C)nc2)c1=O` [Example 215, methyl 4-amino-1-(6-methylpyridin-3-yl)-2-oxo-7-(trifluoromethyl)-1,2-dihydroquinoline-3-carboxylate], the IC50 worked out at 2.5 nM.

With `COC(=O)c1c(N)c2ccc(C(F)(F)F)nc2n(-c2ccc3ccncc3c2)c1=O` [Example 283, methyl 4-amino-1-(isoquinolin-7-yl)-2-oxo-7-(trifluoromethyl)-1,2-dihydro-1,8-naphthyridine-3-carboxylate], the IC50 is 0.7 nM.

As to `COC(=O)c1c(N)c2ccc(C(F)(F)F)cc2n(-c2ccc(N)nc2)c1=O` [Example 182, methyl 4-amino-1-(6-aminopyridin-3-yl)-2-oxo-7-(trifluoromethyl)-1,2-dihydroquinoline-3-carboxylate], the IC50 came to 1.16 nM.

With `COC(=O)c1c(N)c2ccc(Br)cc2n(-c2cnc(Cl)cc2C)c1=O` [Example 161, methyl 4-amino-7-bromo-1-(6-chloro-4-methylpyridin-3-yl)-2-oxo-1,2-dihydroquinoline-3-carboxylate], the IC50 was determined as 4.67 nM.

As to `COC(=O)c1c(N)c2ccc(Br)nc2n(-c2ccc(N)cc2C)c1=O` [Example 304, methyl 4-amino-1-(4-amino-2-methylphenyl)-7-bromo-2-oxo-1,2-dihydro-1,8-naphthyridine-3-carboxylate], the IC50 stood at 2.28 nM.

As for `COC(=O)c1c(N)c2ccc(I)cc2n(-c2ccc(C)nc2C)c1=O` [Example 294, methyl 4-amino-1-(2,6-dimethylpyridin-3-yl)-2-oxo-7-iodo-1,2-dihydroquinoline-3-carboxylate], the half-inhibitory concentration (IC50) turned out to be 1.08 nM.

Turning to `COC(=O)c1c(N)c2ccc(C3CC3)nc2n(-c2ccc(C(C)O)cc2)c1=O` (centres unmarked) [Example 360, methyl 4-amino-7-cyclopropyl-1-(4-(1-hydroxyethyl)phenyl)-2-oxo-1,2-dihydro-1,8-naphthyridine-3-carboxylate], the IC50 was found to be 1.27 nM.

Turning to `COC(=O)c1c(N)c2ccc(C3CC3)cc2n(-c2ccccc2)c1=O` [Example 66, methyl 4-amino-7-cyclopropyl-2-oxo-1-phenyl-1,2-dihydroquinoline-3-carboxylate], the IC50 turned out to be 6.76 nM.

As to `COC(=O)c1c(N)c2ccc(C(F)(F)F)cc2n(-c2ccc(OC)cc2C)c1=O` [Example 80, methyl 4-amino-1-(4-methoxy-2-methylphenyl)-2-oxo-7-(trifluoromethyl)-1,2-dihydroquinoline-3-carboxylate], the IC50 stood at 4.03 nM.

As for `COC(=O)c1c(N)c2ccc(I)cc2n(-c2ccc(Cl)c3cnccc23)c1=O` [Example 227, methyl 4-amino-1-(8-chloroisoquinolin-5-yl)-7-iodo-2-oxo-1,2-dihydroquinoline-3-carboxylate], the IC50 was 1.96 nM.

Consider `COC(=O)c1c(N)c2ccc(I)cc2n(-c2cnc(Cl)cc2C)c1=O` [Example 225, methyl 4-amino-1-(6-chloro-4-methylpyridin-3-yl)-7-iodo-2-oxo-1,2-dihydroquinoline-3-carboxylate], for which the IC50 is 3.11 nM.

Turning to `COC(=O)c1c(N)c2ccc(Br)nc2n(-c2cnc(N)cc2C)c1=O` [Example 280, methyl 4-amino-1-(6-amino-4-methylpyridin-3-yl)-7-bromo-2-oxo-1,2-dihydro-1,8-naphthyridine-3-carboxylate], the IC50 is 1.72 nM.

As for `[2H]C([2H])([2H])OC(=O)c1c(N)c2ccc(OC(F)F)cc2n(-c2ccc(N)cc2C)c1=O` [Example 429, methyl-d3 4-amino-1-(2-methyl-4-aminophenyl)-7-(difluoromethoxy)-2-oxo-1,2-dihydroquinolin-3-carboxylate], the IC50 came to 1.15 nM.

Source of the values: patent publication US20250221979A1, “NOVEL HETEROCYCLIC COMPOUND” (SHOUYAO HOLDINGS (BEIJING) CO., LTD., priority 2022, published 2025).
